The text below walks through data of patent US8586530B2, “Modulation of inhibition of ferrochelatase by N-methyl protoporphyrin” (University of South Florida, priority 2006, dated 2013).

Numbering of substitutions follows the chain as printed.

The target of experiment [1] is T1, ferrochelatase variant P255R (Mus musculus, UniProt P22315, P308R).
T1 construct: In wild-type, murine, mature ferrochelatase, five tryptophan residues; penta-histidine tag (N); made in house; host or cells: E. coli BL21(DE3)
T1 sequence (P22315 54-422 P308R): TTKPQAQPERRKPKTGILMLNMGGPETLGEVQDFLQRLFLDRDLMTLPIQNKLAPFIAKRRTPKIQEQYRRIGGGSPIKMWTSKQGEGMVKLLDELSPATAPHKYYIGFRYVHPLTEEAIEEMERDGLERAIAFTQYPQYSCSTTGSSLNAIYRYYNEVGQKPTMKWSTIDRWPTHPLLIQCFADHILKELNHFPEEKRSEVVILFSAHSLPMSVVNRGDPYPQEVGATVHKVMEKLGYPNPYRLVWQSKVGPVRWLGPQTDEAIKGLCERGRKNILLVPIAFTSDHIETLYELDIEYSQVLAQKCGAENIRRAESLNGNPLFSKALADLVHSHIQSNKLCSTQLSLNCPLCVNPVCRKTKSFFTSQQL
In words: Fluorescence titration of NMPP binding (quenching of intrinsic protein fluorescence). On the set-up: species or system murine. Particulars: 10 mM Tris-acetate pH 8, 0.05% Tween-80, read-out: dissociation constant (Kd) of NMPP. On the procedure: (§1) Aliquots of NMPP were added to a solution of enzyme in 10 mM Tris-acetate, pH 8 containing 0.05% Tween-80 and incubated on ice for 1 hr. The intrinsic protein fluorescence was monitored at 331 nm (λex=283 nm). The Kd value for NMPP was determined by fitting the data to Equation 3. The enzymes used in each set were: A. wild-type ferrochelatase (40 nM); B. P255R (250 nM); C. P255G (120 nM).
(§2) The equilibrium constant for NMPP binding to ferrochelatase could be determined from the change in intrinsic protein fluorescence upon ligand addition. […]
(§3) Fluorescence Titration Measurements. Equilibrium fluorescence measurements were made using a Shimadzu RF-5301PC fluorimeter at 23° C. with excitation and emission wavelengths at 283 nm and 331 nm, respectively. The decrease in protein fluorescence, due to NMPP binding, was monitored. […] In a typical titration experiment, aliquots of the NMPP stock were added to the protein solution and, upon incubation on ice for 1 h, the quenching in fluorescence was monitored as described above. […] The observed fluorescence intensity was plotted against NMPP concentration and the dissociation constant of NMPP for ferrochelatase was determined using the least-squares fit of each data set to equation 3 by nonlinear regression: […]

Experiment [2] deals with T2, ferrochelatase variant P255G (Mus musculus, UniProt P22315, P308G).
T2 construct: In wild-type, murine, mature ferrochelatase, five tryptophan residues; penta-histidine tag (N); made in house; host or cells: E. coli BL21(DE3)
T2 sequence (P22315 54-422 P308G): T1 sequence (P22315 54-422 P308R) with R255G
The experiment is described as above. On the set-up: species or system murine. To be noted: 10 mM Tris-acetate pH 8, 0.05% Tween-80, read-out: dissociation constant (Kd) of NMPP. As to the method: as §1, §2, §3

As usually defined, the Kd is the constant that tells how readily two partners part at equilibrium. For N-methyl protoporphyrin [NMPP], the results for the Kd in experiment [1] and in experiment [2] were 0.16 ± 0.07 µM and 0.3 ± 0.1 µM, respectively.
